Series [1] deals with influenza virus. The series is described as follows: CPE suppression effect confirmation test. In kind it is cell-based. To be noted: for CPE inhibitory effect compared with S-033188A: relative to S-033188A; for EC50: unidentified influenza virus, 72 h, read-out: CPE_EC50.
Series [2] in a line: Detection of toxicity of samples to MDCK cells (alamarBlue). In kind it is cell-based. To be noted: dog, 48 hours incubation. From the text:
Example 9: Detection of Toxicity of Samples to MDCK Cells
The experiment uses alamarBlue® (Invitrogen) kit to detect the toxic effects of drugs on cells.
Experimental principle: The experiment uses alamarBlue® (Invitrogen) kit to detect the toxic effects of drugs on cells. AlamarBlue® is a redox indicator that produces changes in absorbance and fluorescent signals based on cellular metabolic activity. AlamarBlue® is freely soluble in water. After its oxidized form enters cells, it will be reduced by mitochondrial enzymes to produce measurable fluorescence and color changes. It is used for quantitative analysis of cell viability and cell proliferation, and for in vitro cytotoxicity studies. Normal cells with metabolic activity can convert the reagents to produce strong fluorescence and color changes.
Experimental procedure: MDCK cells were seeded in a 96-well cell culture plate, and cultured till cell attachment for later use. The drug was serially 3 times diluted from 2 times the highest test concentration to 8 gradients. The drug was added to the cells and cultured in a CO2 incubator at 37° C. […] The toxicity of the drug to cells is inversely proportional to the activity of the cells and is expressed as the activity of the cells. cell activity (%)=(drug group-blank control)/(cell control-blank control)*100 Calculation formula: […]

Series [3] in a line: Bioavailability test. In kind it is in vivo, SD rats. To be noted: for BA%: SD rats, from AUC of oral and intravenous administration; for half-life: SD, rat, in vivo, iv. Here is the method: Example 6: Bioavailability Test
<Experimental Materials and Methods for Oral Absorption Research>
• (1) Animals used: SD rats are used. • (2) Feeding conditions: SD rats were allowed to take in solid feed and purified water freely. • (3) Dosing amount and grouping setting: Oral or intravenous administration were performed at prescribed dosage. The groups were set as follows. (the dosage of each compound varied)
Oral administration 1 to 30 mg/kg (n=5 to 6)
Intravenous administration 0.5 to 10 mg/kg (n=5 to 6) • (4) Preparation of dosing solution: suspension was used for oral administration through intragastric administration. Solution was used for intravenous administration through tail vein. • (5) Evaluation items: Blood was collected overtime, and the concentrations of the drugs in plasma were determined by LC/MS/MS. • (6) Statistical analysis: For concentration changes in plasma, the area under the concentration-time curve (AUC) in plasma was calculated using the nonlinear least squares method, and the bioavailability (BA) was calculated from the AUC in the oral administration group and the intravenous administration group, and the elimination half-life of drug concentration in plasma through intravenous administration was counted.

Series [4] concerns A/WS/33, A/Victoria/3/75 or B/Maryland/1/59. In kind it is in vivo, BALB/cAnNCrlCrlj mice. Particulars: single oral administration, 50% lethal suppression, 14 days after infection.

Take `[2H][C@]1(N2[C@@H]3COCCN3C(=O)c3c(O)c(=O)ccn32)c2ccccc2SCc2c1ccc(F)c2F` [1A]: in series [1], the “CPE inhibitory effect compared with S-033188A” value was “twice” and the EC50 came to 0.00068 µM. Further, the CC50 (commonly the concentration that lowers cell viability or growth by half) at 48 h in series [2] was 48.3 µM. Also, in series [3], the BA% came to 7.1% and the half-life – broadly, how long it takes for the measured level to halve – is 4 h.

Regarding `[2H][C@]1(N2[C@@H]3COCCN3C(=O)c3c(OCOC(=O)OC)c(=O)ccn32)c2ccccc2SCc2c1ccc(F)c2F` [1B], the ED50 – broadly, the midpoint of the dose-response relation – in series [4] came out at 0.41 mg/kg/day. For the same molecule, the BA% in series [3] came to 18.4%.

Take `[2H]C1([2H])Sc2ccccc2[C@@H](N2[C@@H]3COCCN3C(=O)c3c(O)c(=O)ccn32)c2ccc(F)c(F)c21` [2A]: in series [3], the BA% is 5.0% and the half-life was 5 h.

As to `[2H]C1([2H])Sc2ccccc2[C@@H](N2[C@@H]3COCCN3C(=O)c3c(OCOC(=O)OC)c(=O)ccn32)c2ccc(F)c(F)c21` [2B], in series [4], the ED50 turned out to be 0.71 mg/kg/day. Also, in series [3], the BA% is reported as 15.9%.

With `[2H]C1([2H])Sc2ccccc2[C@]([2H])(N2[C@@H]3COCCN3C(=O)c3c(O)c(=O)ccn32)c2ccc(F)c(F)c21` [3A], in series [1], the “CPE inhibitory effect compared with S-033188A” value was “twice” and the EC50 is 0.0006 µM. In series [3], this molecule gave a BA% of 7.8% and a half-life of 5.2 h.

`[2H]C1([2H])Sc2ccccc2[C@]([2H])(N2[C@@H]3COCCN3C(=O)c3c(OCOC(=O)OC)c(=O)ccn32)c2ccc(F)c(F)c21` [3B] registered an ED50 in series [4] of 0.33 mg/kg/day. Also, the BA% in series [3] is reported as 19.8%.

`O=C1c2c(O)c(=O)ccn2N([C@@H]2c3ccccc3SCc3c2ccc(F)c3F)[C@@H]2COCCN12` [S-033188A, reference compound] yielded a CC50 at 48 h in series [2] of 29.9 µM. Also, in series [3], the BA% is on record as 4.7% and the half-life was 3.8 h.

For the molecule `COC(=O)OCOc1c2n(ccc1=O)N([C@@H]1c3ccccc3SCc3c1ccc(F)c3F)[C@@H]1COCCN1C2=O` [S-033188B, reference compound], the ED50 in series [4] was 0.78 mg/kg/day. In series [3], this molecule showed a BA% of 15.3%.
